Test results from PubChem BioAssay AID2060499 (Molecular Pharmacology Branch, DTP, NCI, 2025).

Test system: 777334-354-R2-J4-PDC tumor spheroids with HUVEC/MSC, viability
Test: Anticancer human tumor 777334-354-R2-J4-PDC patient-derived pancreatic adenocarcinoma cell line growth inhibition [GQUAD]
Conditions: for IC50: curve of first compound; for viability, T/C: stronger effect = lower value
Source text: DNA G-quadruplex Stabilizer Agents in Combinations in Complex Spheroids
A high-throughput screen of multi-cell type tumor spheroids was designed to identify active combinations of DNA G-quadruplex stabilizer agents and targeted small molecules. Complex spheroids include a stromal component modeled by human endothelial cells (HUVEC) and fibroblasts modeled by human mesenchymal stem cells (MSCs). The concentration ranges selected for each drug and investigational agent were based upon clinically achievable concentrations if the clinical Cmax of the agent was known.
Compounds. The drugs and investigational agents: pidnarulex (CX-5461; NSC782164), APTO-253 (NSC789042), BRACO-19 (NSC847499), peposertib (NSC802822), ceralasertib (NSC780249), elimusertib (NSC800525), camonsertib (NSC841442), AZD-1390 (NSC803789), olaparib (NSC753686), talazoparib (NSC767125), ART-558 (NSC835418), sotorasib (NSC818433), MRTX-1133 (NSC836407), SN-38 (NSC673596), topotecan (NSC609699), etoposide (NSC141540), doxorubicin (NSC123127), gemcitabine (NSC613327), 5-fluorouracil (NSC19893), paclitaxel (NSC125973), vemurafenib (NSC761431), panobinostat (NSC761190), R-306465 (JNJ-16241199; NSC773264), adavosertib (NSC754352), TP-3654 (NSC805149), carboplatin (NSC241240), KSQ-4279 (NSC840948), and staurosporine (NSC755774) were obtained from the National Cancer Institute (NCI) Developmental Therapeutics Program Chemical Repository (34). The FDA-approved anticancer drug set is available from the NCI Developmental Therapeutics Program. […] The stock solutions were prepared in dimethyl sulfoxide (DMSO, Sigma-Aldrich, St. Louis, MO, cat. D2650) at 800-fold the tested concentration and stored at -70 degrees C prior to their use. All drugs and investigational agents were tested over a range starting from a high concentration at or near the clinical Cmax and decreasing in half-log increments. If the clinical Cmax for an agent had not been determined, the highest concentration tested was 10 microM.
2.3 Cell Culture. All cells were maintained in an incubator at 37 degrees C and 5% CO2 with 95% humidity. The PDC lines were cultured according to standard operating procedures established by the NCI PDMR. All PDCs were thawed and cultured in Matrigel-coated flasks prepared with a working solution of 1X Ham's F-12 nutrient mix, without supplementation (Invitrogen, cat. 11765054), 100 U/mL penicillin-streptomycin (Invitrogen, cat. 15140122), and 2.5% Matrigel (Corning Inc., cat. 354248) for the first three passages. The 857933-349-R-J2-PDC line was cultured in 6C/Colon 1B media, which includes advanced DMEM/F-12 (Thermo Fisher Scientific, cat. 12634028), 10 mM HEPES (Thermo Fisher Scientific, cat. 15630080), 1X GlutaMAX supplement (Thermo Fisher Scientific, cat. 35050061), 0.1 mg/mL primocin (InvivoGen, cat. ant-pm-2), 10% defined fetal bovine serum, heat inactivated (HyClone Laboratories Inc., cat. SH30070.03HI), 50% L-WRN conditioned media (ATCC, cat. CRL-3276), 1.25 mM N-Acetyl-L-cysteine (Sigma-Aldrich, cat. A9165), 10 mM nicotinamide (Sigma-Aldrich, cat. N0636), 1X B-27 supplement (Thermo Fisher Scientific, cat. 17504044), 1X N-2 supplement (Thermo Fisher Scientific, cat. 17502048), 10 microM Y-27632 dihydrochloride (Tocris Bioscience, cat. 1254), and 50 ng/mL human EGF recombinant protein (Thermo Fisher Scientific, cat. PHG0311). The 485176-168-R4-J1-PDC line was cultured in Panc media, which includes all 6C/Colon 1B media components plus 100 ng/mL human FGF-10 (Thermo Fisher Scientific, cat. 100-26), 500 nM SB-431542 (Selleckchem, cat. S1067), and gastrin (Tocris, cat. 3006).
[…]

[1] = second compound 0.0316 µM, first compound 0.0316 µM
[2] = second compound 0.0316 µM, first compound 0.1 µM
[3] = second compound 0.0316 µM, first compound 0.316 µM
[4] = second compound 0.0316 µM, first compound 1 µM
[5] = second compound 0.0316 µM, first compound 3.16 µM
[6] = second compound 0.0316 µM, first compound 10 µM
[7] = second compound 0.1 µM, first compound 0.0316 µM
[8] = second compound 0.1 µM, first compound 0.1 µM
[9] = second compound 0.1 µM, first compound 0.316 µM
[10] = second compound 0.1 µM, first compound 1 µM
[11] = second compound 0.1 µM, first compound 3.16 µM
[12] = second compound 0.1 µM, first compound 10 µM
[13] = second compound 0.316 µM, first compound 0.0316 µM
[14] = second compound 0.316 µM, first compound 0.1 µM
[15] = second compound 0.316 µM, first compound 0.316 µM
[16] = second compound 0.316 µM, first compound 1 µM
[17] = second compound 0.316 µM, first compound 3.16 µM
[18] = second compound 0.316 µM, first compound 10 µM
[19] = second compound 1 µM, first compound 0.0316 µM
[20] = second compound 1 µM, first compound 0.1 µM
[21] = second compound 1 µM, first compound 0.316 µM
[22] = second compound 1 µM, first compound 1 µM
[23] = second compound 1 µM, first compound 3.16 µM
[24] = second compound 1 µM, first compound 10 µM
[25] = second compound 3.16 µM, first compound 0.0316 µM
[26] = second compound 3.16 µM, first compound 0.1 µM
[27] = second compound 3.16 µM, first compound 0.316 µM
[28] = second compound 3.16 µM, first compound 1 µM
[29] = second compound 3.16 µM, first compound 3.16 µM
[30] = second compound 3.16 µM, first compound 10 µM
[31] = second compound 10 µM, first compound 0.0316 µM
[32] = second compound 10 µM, first compound 0.1 µM
[33] = second compound 10 µM, first compound 0.316 µM
[34] = second compound 10 µM, first compound 1 µM
[35] = second compound 10 µM, first compound 3.16 µM
[36] = second compound 10 µM, first compound 10 µM
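Note: spheroids exposed to compounds for 7 days before readout.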

`COc1ccc([C@@H](O)c2cc(-c3ncnc4cc(N5CCOCC5)ccc34)c(F)cc2Cl)nn1` + Cc1[nH]c2ccc(F)cc2c1-c1nc2c3cccnc3c3ncccc3c2[nH]1 showed an IC50 (second compound 0.0316 µM) of 3.89 µM, an IC50 (second compound 0.1 µM) of 3.88 µM and an IC50 (second compound 0.316 µM) of 3.44 µM. For the same compound, the IC50 (second compound 1 µM) was 1.89 µM, the IC50 (second compound 3.16 µM) was < 0.0316 µM and the IC50 (second compound 10 µM) was < 0.0316 µM. It also gave a viability, T/C [1] of 102%, a viability, T/C [2] of 91% and a viability, T/C [3] of 95%. It also gave a viability, T/C [4] of 76%, a viability, T/C [5] of 54.5% and a viability, T/C [6] of 30.3%. The viability, T/C [7] was 110%, the viability, T/C [8] was 98.8% and the viability, T/C [9] was 93%. It also gave a viability, T/C [10] of 71%, a viability, T/C [11] of 55.4% and a viability, T/C [12] of 30.5%. It also gave a viability, T/C [13] of 92.8%, a viability, T/C [14] of 92.9% and a viability, T/C [15] of 88.2%. The viability, T/C [16] was 80.3%, the viability, T/C [17] was 51.4% and the viability, T/C [18] was 28.9%. It also gave a viability, T/C [19] of 79.9%, a viability, T/C [20] of 89.9% and a viability, T/C [21] of 76.8%. The viability, T/C [22] was 61.8%, the viability, T/C [23] was 40.6% and the viability, T/C [24] was 22.2%. The viability, T/C [25] was 46.1%, the viability, T/C [26] was 43.4% and the viability, T/C [27] was 36.7%. It also gave a viability, T/C [28] of 17.7%, a viability, T/C [29] of 13.6% and a viability, T/C [30] of 9.99%. For the same compound, the viability, T/C [31] was 35.4%, the viability, T/C [32] was 29.1% and the viability, T/C [33] was 27.8%. For the same compound, the viability, T/C [34] was 15.2%, the viability, T/C [35] was 13% and the viability, T/C [36] was 12.6%.

For `COc1cc(C2c3cc4c(cc3C(OC3OC5COC(C)OC5C(O)C3O)C3COC(=O)C23)OCO4)cc(OC)c1O` (centres undefined) + CN(C)c1ccc(Nc2c3ccc(NC(=O)CCN4CCCC4)cc3nc3cc(NC(=O)CCN4CCCC4)ccc23)cc1, the IC50 (second compound 0.0316 µM) was 4.94 µM, the IC50 (second compound 0.1 µM) was 4.35 µM and the IC50 (second compound 0.316 µM) was 4.03 µM. For the same compound, the IC50 (second compound 1 µM) was 2.93 µM, the IC50 (second compound 3.16 µM) was 4.71 µM and the IC50 (second compound 10 µM) was 3.61 µM. For the same compound, the viability, T/C [1] was 98.6%, the viability, T/C [2] was 87.8% and the viability, T/C [3] was 88.9%. It also gave a viability, T/C [4] of 70.4%, a viability, T/C [5] of 57.8% and a viability, T/C [6] of 38.5%. It also gave a viability, T/C [7] of 99.6%, a viability, T/C [8] of 95.2% and a viability, T/C [9] of 87.5%. For the same compound, the viability, T/C [10] was 79%, the viability, T/C [11] was 54% and the viability, T/C [12] was 36%. It also gave a viability, T/C [13] of 93.5%, a viability, T/C [14] of 78.9% and a viability, T/C [15] of 85.5%. For the same compound, the viability, T/C [16] was 70.3%, the viability, T/C [17] was 53.6% and the viability, T/C [18] was 34.1%. It also gave a viability, T/C [19] of 90.5%, a viability, T/C [20] of 82% and a viability, T/C [21] of 87.4%. For the same compound, the viability, T/C [22] was 74.3%, the viability, T/C [23] was 48.5% and the viability, T/C [24] was 37.4%. For the same compound, the viability, T/C [25] was 88%, the viability, T/C [26] was 78.5% and the viability, T/C [27] was 77.8%. It also gave a viability, T/C [28] of 66.3%, a viability, T/C [29] of 60.4% and a viability, T/C [30] of 36.6%. For the same compound, the viability, T/C [31] was 79%, the viability, T/C [32] was 84.8% and the viability, T/C [33] was 75.1%. The viability, T/C [34] was 61%, the viability, T/C [35] was 55% and the viability, T/C [36] was 33.6%.
